Laboratory results reported in US9783592B2 (priority 2010, dated 2017).

Tests used:
[1] = molecular target: T1, GLP-1 receptor (Homo sapiens, UniProt P43220); test: GLP-1 binding, [I125]-GLP-1 SPA with receptor membrane extracts; conditions: read-out: GLP-1 IC50, Example 22, GLP-1 receptor cell membrane extracts
T1 construct: expressed in transfected cells; host or cells: HEK293

[2] = molecular target: T2, ERα (Homo sapiens, UniProt P03372); assay type: cell-based; design: T47D cells transfected with the luciferase gene fused to the estrogen response element (ERE); endogenous in cells; host or cells: T47D; conditions: T47D cells, ERE-luciferase
[3] = molecular target: T2, ERα; conditions: read-out: ERα IC50; purified ERα, [I125]-estradiol
[4] = molecular target: T1, GLP-1 receptor; test: GLP-1 activity (cAMP induction), CRE-luciferase reporter assay in HEK293 cells; assay type: cell-based; conditions: read-out: GLP-1 EC50; Example 22; HEK293 cells co-transfected with GLP-1 receptor and CRE-luciferase
[5] = Example 20: DIO mice, daily s.c. dosing; assay type: in vivo
[6] = Stability analysis in human plasma (estrogen release); assay type: in vitro ADME; conditions: 1 mg/mL, 100% human plasma, pH 7.4, 37° C.
[7] = solubility in aqueous solution; assay type: physicochemical
[8] = molecular target: T3, glucagon receptor (Homo sapiens, UniProt P47871); test: glucagon antagonist activity, reduction of glucagon-induced cAMP production in an in vitro assay; assay type: cell-based; conditions: PLA at position 6 versus positions 4 and 5
T3 construct: expressed in transfected cells; host or cells: HEK293

[9] = molecular target: T1, GLP-1 receptor; test: GLP-1 receptor activation, cAMP induction in HEK293 cells over-expressing the receptor (luciferase reporter); assay type: cell-based

T1 sequence (P43220 24-463, species assumed): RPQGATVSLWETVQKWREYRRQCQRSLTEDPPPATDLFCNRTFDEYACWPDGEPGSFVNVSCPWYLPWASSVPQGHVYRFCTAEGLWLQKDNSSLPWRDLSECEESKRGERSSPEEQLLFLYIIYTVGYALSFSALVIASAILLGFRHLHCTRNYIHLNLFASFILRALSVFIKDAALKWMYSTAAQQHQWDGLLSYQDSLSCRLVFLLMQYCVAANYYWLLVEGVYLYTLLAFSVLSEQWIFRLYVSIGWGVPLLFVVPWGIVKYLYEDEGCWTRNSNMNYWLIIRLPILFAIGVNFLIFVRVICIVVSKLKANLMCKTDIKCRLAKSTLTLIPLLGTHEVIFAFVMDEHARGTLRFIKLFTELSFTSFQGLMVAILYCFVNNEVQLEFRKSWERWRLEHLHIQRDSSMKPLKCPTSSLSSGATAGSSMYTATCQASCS
T2 sequence (P03372 whole entry, the tested form may be a part): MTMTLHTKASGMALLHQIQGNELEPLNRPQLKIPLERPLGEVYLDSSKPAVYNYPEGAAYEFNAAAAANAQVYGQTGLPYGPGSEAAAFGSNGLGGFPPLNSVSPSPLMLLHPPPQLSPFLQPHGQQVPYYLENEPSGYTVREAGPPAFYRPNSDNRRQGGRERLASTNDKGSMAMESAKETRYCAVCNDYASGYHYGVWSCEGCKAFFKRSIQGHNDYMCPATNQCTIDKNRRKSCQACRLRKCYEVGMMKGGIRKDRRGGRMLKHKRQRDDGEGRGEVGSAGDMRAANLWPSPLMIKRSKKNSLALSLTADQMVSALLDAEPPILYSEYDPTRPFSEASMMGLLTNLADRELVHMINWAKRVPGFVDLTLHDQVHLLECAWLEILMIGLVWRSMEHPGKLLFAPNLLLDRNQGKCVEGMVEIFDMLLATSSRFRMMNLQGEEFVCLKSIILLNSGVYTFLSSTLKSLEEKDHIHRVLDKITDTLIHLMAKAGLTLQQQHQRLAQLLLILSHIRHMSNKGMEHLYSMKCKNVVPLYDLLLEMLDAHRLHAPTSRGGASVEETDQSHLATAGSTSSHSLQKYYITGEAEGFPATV
T3 sequence (P47871 26-477): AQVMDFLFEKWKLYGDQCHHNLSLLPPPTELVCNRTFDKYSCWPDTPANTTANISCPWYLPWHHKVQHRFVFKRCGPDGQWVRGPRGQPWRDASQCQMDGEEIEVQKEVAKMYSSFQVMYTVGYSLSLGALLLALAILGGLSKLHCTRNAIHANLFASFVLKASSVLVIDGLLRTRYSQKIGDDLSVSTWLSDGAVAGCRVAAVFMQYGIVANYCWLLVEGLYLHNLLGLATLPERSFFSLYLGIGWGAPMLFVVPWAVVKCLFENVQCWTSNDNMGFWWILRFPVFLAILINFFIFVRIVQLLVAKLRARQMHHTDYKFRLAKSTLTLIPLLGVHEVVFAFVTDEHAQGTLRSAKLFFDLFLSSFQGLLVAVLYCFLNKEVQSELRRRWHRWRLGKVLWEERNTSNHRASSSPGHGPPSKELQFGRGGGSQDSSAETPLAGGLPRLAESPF

In the case of CC[C@H](C)[C@H](NC(=O)[C@H](Cc1ccccc1)NC(=O)[C@H](CCC(=O)O)NC(=O)[C@H](CCCCN)NC(=O)[C@H](C)NC(=O)[C@H](C)NC(=O)[C@H](CCC(N)=O)NC(=O)[C@H](CCC(=O)O)NC(=O)[C@H](CCC(=O)O)NC(=O)[C@H](CC(C)C)NC(=O)[C@H](Cc1ccc(O)cc1)NC(=O)[C@H](CO)NC(=O)[C@H](CO)NC(=O)[C@@H](NC(=O)[C@H](CC(=O)O)NC(=O)[C@H](CO)NC(=O)[C@@H](NC(=O)[C@H](Cc1ccccc1)NC(=O)[C@@H](NC(=O)CNC(=O)[C@H](CCC(=O)O)NC(=O)C(C)(C)NC(=O)[C@@H](N)Cc1c[nH]cn1)[C@@H](C)O)[C@@H](C)O)C(C)C)C(=O)N[C@@H](C)C(=O)N[C@@H](Cc1c[nH]c2ccccc12)C(=O)N[C@@H](CC(C)C)C(=O)N[C@H](C(=O)N[C@@H](CCCCN)C(=O)NCC(=O)NCC(=O)N1CCC[C@H]1C(=O)N[C@@H](CO)C(=O)N[C@@H](CO)C(=O)NCC(=O)N[C@@H](C)C(=O)N1CCC[C@H]1C(=O)N1CCC[C@H]1C(=O)N1CCC[C@H]1C(=O)N[C@@H](CO)C(=O)N[C@@H](CCCCNC(=O)CCC(=O)Oc1ccc2c(c1)CC[C@@H]1[C@@H]2CC[C@]2(C)[C@@H](OC(C)=O)CC[C@@H]12)C(N)=O)C(C)C [GLP-1/Estrogen(3-ester)], the IC50 [1] is reported as 0.627 ± 0.046 nM, the EC50 [2] is reported as 0.013 ± 0.001 nM and the IC50 [3] is reported as 198 ± 16.8 nM. For the same molecule, the EC50 [4] was 0.014 ± 0.001 nM, the fat mass ([5]; FIG. 9b) was “least amount of fat mass” and the “change in body weight” value ([5]; s.c. once per day, after 7 days) was “greatest decrease in body weight”.
With CC[C@H](C)[C@H](NC(=O)[C@H](Cc1ccccc1)NC(=O)[C@H](CCC(=O)O)NC(=O)[C@H](CCCCN)NC(=O)[C@H](C)NC(=O)[C@H](C)NC(=O)[C@H](CCC(N)=O)NC(=O)[C@H](CCC(=O)O)NC(=O)[C@H](CCC(=O)O)NC(=O)[C@H](CC(C)C)NC(=O)[C@H](Cc1ccc(O)cc1)NC(=O)[C@H](CO)NC(=O)[C@H](CO)NC(=O)[C@@H](NC(=O)[C@H](CC(=O)O)NC(=O)[C@H](CO)NC(=O)[C@@H](NC(=O)[C@H](Cc1ccccc1)NC(=O)[C@@H](NC(=O)CNC(=O)[C@H](CCC(=O)O)NC(=O)C(C)(C)NC(=O)[C@@H](N)Cc1c[nH]cn1)[C@@H](C)O)[C@@H](C)O)C(C)C)C(=O)N[C@@H](C)C(=O)N[C@@H](Cc1c[nH]c2ccccc12)C(=O)N[C@@H](CC(C)C)C(=O)N[C@H](C(=O)N[C@@H](CCCCN)C(=O)NCC(=O)NCC(=O)N1CCC[C@H]1C(=O)N[C@@H](CO)C(=O)N[C@@H](CO)C(=O)NCC(=O)N[C@@H](C)C(=O)N1CCC[C@H]1C(=O)N1CCC[C@H]1C(=O)N1CCC[C@H]1C(=O)N[C@@H](CO)C(=O)N[C@@H](CCCCNC(=O)COc1ccc2c(c1)CC[C@@H]1[C@@H]2CC[C@]2(C)[C@@H](O)CC[C@@H]12)C(N)=O)C(C)C [GLP-1/Estrogen(3-ether)] the “estrogen release in plasma” value [6] was “no estrogen release over 72 hours”.
With CSCC[C@H](NC(=O)[C@H](CC(C)C)NC(=O)[C@H](Cc1c[nH]c2ccccc12)NC(=O)[C@H](CCC(N)=O)NC(=O)[C@@H](NC(=O)[C@H](Cc1ccccc1)NC(=O)[C@H](CC(=O)O)NC(=O)[C@H](CCC(N)=O)NC(=O)[C@H](C)NC(=O)[C@H](CCCN=C(N)N)NC(=O)[C@H](CCCN=C(N)N)NC(=O)[C@H](CO)NC(=O)[C@H](CC(=O)O)NC(=O)[C@H](CC(C)C)NC(=O)[C@H](Cc1ccc(O)cc1)NC(=O)[C@H](CCCCN)NC(=O)[C@H](CO)NC(=O)[C@H](Cc1ccc(O)cc1)NC(=O)[C@H](CC(=O)O)NC(=O)[C@H](CO)NC(=O)[C@@H](NC(=O)[C@H](Cc1ccccc1)NC(=O)[C@@H](NC(=O)CNC(=O)[C@H](CCC(N)=O)NC(=O)[C@H](CO)NC(=O)[C@@H](N)Cc1c[nH]cn1)[C@@H](C)O)[C@@H](C)O)C(C)C)C(=O)N[C@@H](CC(N)=O)C(=O)N[C@H](C(=O)O)[C@@H](C)O [Glucagon] the “solubility in aqueous solution” value [7] was “poor solubility in aqueous solution, particularly at physiological pH”.
For “PLA6 analog: glucagon peptide, first 5 amino acids removed from the N-terminus, remaining N-terminal amino group replaced with a hydroxyl group”, the glucagon antagonist potency [8] was “appreciably more potent antagonist than glucagon analogs having a slightly extended N-terminus”.
In the case of “SEQ ID NO: 22: glucagon analog in which the native glutamine at position 3 is substituted with glutamic acid”, the “selectivity for the GLP-1 receptor over the glucagon receptor” value [9] is reported as “approximately a tenfold selectivity for the GLP-1 receptor”.
